The text below walks through data of paper PMC5218480 (PLoS ONE, 2017).

Molecules are shown by their SMILES.

This assay relates to MV-4-11 cells. The assay can be described thus: Gene expression microarray analysis (Affymetrix PrimeView) and GSEA. It is filed as cell-based, human. On the set-up: RFU PODN (11730768_x_at) / Fold change /veh PODN (11730768_x_at) / RFU LINC00158 (11744669_a_at) / Fold change /veh LINC00158 (11744669_a_at) / RFU DUSP10 (11751237_a_at) / Fold change /veh DUSP10 (11751237_a_at) / RFU ID3 (11757404_x_at) / Fold change /veh ID3 (11757404_x_at) / RFU PLEKHG5 (11737974_s_at) / Fold change /veh PLEKHG5 (11737974_s_at) / RFU LRRC4B (11730491_at) / Fold change /veh LRRC4B (11730491_at) / RFU GIMAP4 (11747438_a_at) / Fold change /veh GIMAP4 (11747438_a_at) / RFU KRT8 (11758183_x_at) / Fold change /veh KRT8 (11758183_x_at) / RFU CNN1 (11734310_a_at) / Fold change /veh CNN1 (11734310_a_at) / RFU VPS37D (11726825_at) / Fold change /veh VPS37D (11726825_at) / RFU C10orf10 (11716522_x_at) / Fold change /veh C10orf10 (11716522_x_at) / RFU KIR2DL2 /// KIR2DL4 /// KIR2DL5A /// KIR2DL5B /// KIR2DS1 /// KIR2DS2 /// KIR2DS3 /// KIR2DS4 /// KIR3DL3 /// KIR3DL3 /// KIR3DS1 (11738374_at) / Fold change /veh KIR2DL2 /// KIR2DL4 /// KIR2DL5A /// KIR2DL5B /// KIR2DS1 /// KIR2DS2 /// KIR2DS3 /// KIR2DS4 /// KIR3DL3 /// KIR3DL3 /// KIR3DS1 (11738374_at) / RFU C1QL1 (11718748_at) / Fold change /veh C1QL1 (11718748_at) / RFU TMPRSS4 (11747572_a_at) / Fold change /veh TMPRSS4 (11747572_a_at) / RFU HAMP (11756126_x_at) / Fold change /veh HAMP (11756126_x_at) / RFU RNFT2 (11725882_a_at) / Fold change /veh RNFT2 (11725882_a_at) / RFU NR4A2 (11747474_a_at) / Fold change /veh NR4A2 (11747474_a_at) / RFU ABCC12 (11746883_a_at) / Fold change /veh ABCC12 (11746883_a_at) / RFU TMEM136 (11760407_x_at) / Fold change /veh TMEM136 (11760407_x_at) / RFU CLDN22 /// WWC2 (11732394_at) / Fold change /veh CLDN22 /// WWC2 (11732394_at) / RFU HLA-DPB1 (11760878_x_at) / Fold change /veh HLA-DPB1 (11760878_x_at) / RFU SPINT1 (11716480_a_at) / Fold change /veh SPINT1 (11716480_a_at) / RFU GAP43 (11754022_s_at) / Fold change /veh GAP43 (11754022_s_at) / RFU A4GNT (11735810_at) / Fold change /veh A4GNT (11735810_at) / RFU PRB3 (11715151_x_at) / Fold change /veh PRB3 (11715151_x_at) / RFU TUBB4B (11761932_at) / Fold change /veh TUBB4B (11761932_at) / RFU CAPN14 (11732068_a_at) / Fold change /veh CAPN14 (11732068_a_at) / RFU TMCC2 (11721928_a_at) / Fold change /veh TMCC2 (11721928_a_at) / RFU IRGQ (11745062_a_at) / Fold change /veh IRGQ (11745062_a_at) / RFU FAM174B (11720279_a_at) / Fold change /veh FAM174B (11720279_a_at) / RFU TMPRSS4 (11748680_a_at) / Fold change /veh TMPRSS4 (11748680_a_at) / RFU FAM212B (11763350_a_at) / Fold change /veh FAM212B (11763350_a_at) / RFU PLEKHG5 (11743358_a_at) / Fold change /veh PLEKHG5 (11743358_a_at) / RFU ZSCAN30 (11745921_a_at) / Fold change /veh ZSCAN30 (11745921_a_at) / RFU CMKLR1 (11741424_a_at) / Fold change /veh CMKLR1 (11741424_a_at) / RFU LOC101060620 /// MAPK8IP1 (11723275_at) / Fold change /veh LOC101060620 /// MAPK8IP1 (11723275_at) / RFU SPTSSB (11747773_x_at) / Fold change /veh SPTSSB (11747773_x_at) / RFU PRSS12 (11739890_at) / Fold change /veh PRSS12 (11739890_at) / RFU BIN1 (11741810_x_at) / Fold change /veh BIN1 (11741810_x_at) / RFU WNT11 (11732464_a_at) / Fold change /veh WNT11 (11732464_a_at) / RFU C10orf10 (11716521_a_at) / Fold change /veh C10orf10 (11716521_a_at) / RFU C5orf56 (11738089_at) / Fold change /veh C5orf56 (11738089_at) / RFU CYB561 (11721691_x_at) / Fold change /veh CYB561 (11721691_x_at) / RFU ANKRD19P (11752326_a_at) / Fold change /veh ANKRD19P (11752326_a_at) / RFU OR2T12 /// OR2T33 /// OR2T8 (11738714_s_at) / Fold change /veh OR2T12 /// OR2T33 /// OR2T8 (11738714_s_at) / RFU VCAN (11748164_a_at) / Fold change /veh VCAN (11748164_a_at) / RFU JSRP1 (11732532_at) / Fold change /veh JSRP1 (11732532_at) / RFU KRTAP10-11 (11738290_x_at) / Fold change /veh KRTAP10-11 (11738290_x_at) / RFU MYO3A (11730013_a_at) / Fold change /veh MYO3A (11730013_a_at) / RFU EBF3 (11725865_a_at) / Fold change /veh EBF3 (11725865_a_at) / RFU CAMK2N1 (11719241_x_at) / Fold change /veh CAMK2N1 (11719241_x_at) / RFU C5orf56 (11738088_a_at) / Fold change /veh C5orf56 (11738088_a_at) / RFU OLFML3 (11715873_a_at) / Fold change /veh OLFML3 (11715873_a_at) / RFU LOC100653217 /// NTM (11731650_a_at) / Fold change /veh LOC100653217 /// NTM (11731650_a_at) / RFU MAPK11 (11762145_a_at) / Fold change /veh MAPK11 (11762145_a_at) / RFU FIZ1 (11724087_x_at) / Fold change /veh FIZ1 (11724087_x_at) / RFU OASL (11726364_x_at) / Fold change /veh OASL (11726364_x_at) / RFU SOX15 (11748057_x_at) / Fold change /veh SOX15 (11748057_x_at) / RFU CD79A (11719716_a_at) / Fold change /veh CD79A (11719716_a_at) / RFU HIST1H1D (11736915_at) / Fold change /veh HIST1H1D (11736915_at) / RFU CASKIN2 (11723855_a_at) / Fold change /veh CASKIN2 (11723855_a_at) / RFU LOC730098 (11760151_x_at) / Fold change /veh LOC730098 (11760151_x_at) / RFU OR4N2 (11742367_at) / Fold change /veh OR4N2 (11742367_at) / RFU PRRT2 (11749266_a_at) / Fold change /veh PRRT2 (11749266_a_at) / RFU SNX32 (11753110_a_at) / Fold change /veh SNX32 (11753110_a_at) / RFU CDHR5 (11726645_a_at) / Fold change /veh CDHR5 (11726645_a_at) / RFU RCAN1 (11760418_a_at) / Fold change /veh RCAN1 (11760418_a_at) / RFU FAM167A (11723789_a_at) / Fold change /veh FAM167A (11723789_a_at) / RFU FAM26E (11764081_at) / Fold change /veh FAM26E (11764081_at) / RFU ISYNA1 (11749810_s_at) / Fold change /veh ISYNA1 (11749810_s_at) / RFU ACY1 (11761880_at) / Fold change /veh ACY1 (11761880_at) / RFU 11764098_at / Fold change /veh 11764098_at / RFU SAMD14 (11745864_x_at) / Fold change /veh SAMD14 (11745864_x_at) / RFU NPB (11741838_a_at) / Fold change /veh NPB (11741838_a_at) / RFU TMPRSS6 (11731388_a_at) / Fold change /veh TMPRSS6 (11731388_a_at) / RFU KRTAP10-2 (11738614_at) / Fold change /veh KRTAP10-2 (11738614_at) / RFU ARHGAP8 /// PRR5-ARHGAP8 (11727945_x_at) / Fold change /veh ARHGAP8 /// PRR5-ARHGAP8 (11727945_x_at) / RFU KRTAP5-7 /// NADSYN1 (11734609_at) / Fold change /veh KRTAP5-7 /// NADSYN1 (11734609_at) / RFU RASL12 (11751679_a_at) / Fold change /veh RASL12 (11751679_a_at) / RFU CDKN2B (11736163_a_at) / Fold change /veh CDKN2B (11736163_a_at) / RFU PRF1 (11729649_at) / Fold change /veh PRF1 (11729649_at) / RFU, ZNF638 /// ZNF638-IT1 / Fold change vs veh, ZNF638 /// ZNF638-IT1 / RFU, PANK3 / Fold change vs veh, PANK3 / RFU, SH3YL1 / Fold change vs veh, SH3YL1 / RFU, ZEB2 / Fold change vs veh, ZEB2 / RFU, NRIP1 / Fold change vs veh, NRIP1 / RFU, PTTG1IP / Fold change vs veh, PTTG1IP / RFU, CAPN2 / Fold change vs veh, CAPN2 / RFU, MED14 / Fold change vs veh, MED14 / RFU, SNORA58 / Fold change vs veh, SNORA58 / RFU, C1orf63 / Fold change vs veh, C1orf63 / RFU, LRRFIP1 / Fold change vs veh, LRRFIP1 / RFU, NDUFAF7 / Fold change vs veh, NDUFAF7 / RFU, SLC12A2 / Fold change vs veh, SLC12A2 / RFU, IBTK / Fold change vs veh, IBTK / RFU, ESF1 / Fold change vs veh, ESF1 / Fold change vs veh, TMEM50B / RFU, TAOK1 / Fold change vs veh, TAOK1 / RFU, ACBD3 / Fold change vs veh, ACBD3 / RFU, TMA16 / Fold change vs veh, TMA16 / RFU, RWDD3 / Fold change vs veh, RWDD3 / RFU, BCAT1 / Fold change vs veh, BCAT1 / RFU, EDEM3 / Fold change vs veh, EDEM3 / RFU, TMEM33 / Fold change vs veh, TMEM33 / RFU, WDR75 / Fold change vs veh, WDR75 / RFU, AHCTF1 / Fold change vs veh, AHCTF1 / RFU, TFRC / Fold change vs veh, TFRC / RFU, ZDHHC17 / Fold change vs veh, ZDHHC17 / RFU, NOM1 / Fold change vs veh, NOM1 / RFU, ARL8B / Fold change vs veh, ARL8B / RFU, ZBTB11 / Fold change vs veh, ZBTB11 / RFU, TAMM41 / Fold change vs veh, TAMM41 / RFU, KIAA1704 /// LOC100996395 / Fold change vs veh, KIAA1704 /// LOC100996395 / RFU, ING1 / Fold change vs veh, ING1 / RFU, TRMT61B / Fold change vs veh, TRMT61B / RFU, FUBP3 / Fold change vs veh, FUBP3 / RFU, TP53 / Fold change vs veh, TP53 / RFU, TNKS2 / Fold change vs veh, TNKS2 / RFU, ZFP14 / Fold change vs veh, ZFP14 / RFU, ACTR2 / Fold change vs veh, ACTR2 / RFU, PPP3R1 / Fold change vs veh, PPP3R1 / RFU, PIK3R1 / Fold change vs veh, PIK3R1 / RFU, HNRNPA1 / Fold change vs veh, HNRNPA1 / RFU, RNF170 / Fold change vs veh, RNF170 / RFU, ZNF28 / Fold change vs veh, ZNF28 / RFU, RNGTT / Fold change vs veh, RNGTT / RFU, OGT / Fold change vs veh, OGT / RFU, BRD1 / Fold change vs veh, BRD1 / RFU, MARS / Fold change vs veh, MARS / RFU, ZNF655 / Fold change vs veh, ZNF655 / RFU, FAHD1 / Fold change vs veh, FAHD1 / RFU, BDP1 / Fold change vs veh, BDP1 / RFU, LRRCC1 / Fold change vs veh, LRRCC1 / RFU, ARID1A / Fold change vs veh, ARID1A / RFU, ZNF146 / Fold change vs veh, ZNF146 / RFU, ZNF330 / Fold change vs veh, ZNF330 / RFU, GPN3 / Fold change vs veh, GPN3 / RFU, C9orf123 / Fold change vs veh, C9orf123 / RFU, N4BP2L2 / Fold change vs veh, N4BP2L2 / RFU, ARFIP1 / Fold change vs veh, ARFIP1 / RFU, FAM179B / Fold change vs veh, FAM179B / RFU, BCL10 / Fold change vs veh, BCL10 / RFU, UHRF1BP1L / Fold change vs veh, UHRF1BP1L / RFU, BET1 / Fold change vs veh, BET1 / RFU, CNOT2 / Fold change vs veh, CNOT2 / RFU, ZNF268 / Fold change vs veh, ZNF268 / Fold change vs veh, ZNF507 / RFU, DGCR2 / Fold change vs veh, DGCR2 / RFU, WDSUB1 / Fold change vs veh, WDSUB1 / Fold change vs veh, HSP90B1 /// MIR3652 / RFU, ADSS / Fold change vs veh, ADSS / RFU, GK / Fold change vs veh, GK / RFU, ZNF148 / Fold change vs veh, ZNF148 / RFU, TAF9 / Fold change vs veh, TAF9 / RFU, SLC1A5 / Fold change vs veh, SLC1A5 / RFU, SLMO2 / Fold change vs veh, SLMO2 / RFU, ABCC4 / Fold change vs veh, ABCC4 / RFU, LOC101060439 /// RAP1B / Fold change vs veh, LOC101060439 /// RAP1B / RFU, RFX7 / Fold change vs veh, RFX7 / RFU, GTPBP10 / Fold change vs veh, GTPBP10 / RFU, CNEP1R1 / Fold change vs veh, CNEP1R1 / RFU, BIVM-ERCC5 /// ERCC5 / Fold change vs veh, BIVM-ERCC5 /// ERCC5 / RFU, ILF3 / Fold change vs veh, ILF3 / RFU 11762660_at / Fold change /veh 11762660_at / RFU VCAN (11757783_s_at) / Fold change /veh VCAN (11757783_s_at) / RFU DDX43 (11728927_at) / Fold change /veh DDX43 (11728927_at) / RFU KRT8 (11758188_x_at) / Fold change /veh KRT8 (11758188_x_at) / RFU NKD1 (11759106_at) / Fold change /veh NKD1 (11759106_at) / RFU SRD5A1 (11742802_a_at) / Fold change /veh SRD5A1 (11742802_a_at) / RFU TPSAB1 /// TPSB2 (11721975_s_at) / Fold change /veh TPSAB1 /// TPSB2 (11721975_s_at) / RFU GSTM3 (11746129_a_at) / Fold change /veh GSTM3 (11746129_a_at) / RFU IL23R (11737362_x_at) / Fold change /veh IL23R (11737362_x_at) / RFU TMEM51 (11727254_a_at) / Fold change /veh TMEM51 (11727254_a_at) / RFU PIWIL2 (11732686_x_at) / Fold change /veh PIWIL2 (11732686_x_at) / RFU ORM1 (11744905_x_at) / Fold change /veh ORM1 (11744905_x_at) / RFU CCDC152 (11743942_at) / Fold change /veh CCDC152 (11743942_at) / RFU ECM1 (11717891_a_at) / Fold change /veh ECM1 (11717891_a_at) / RFU IL23R (11748794_a_at) / Fold change /veh IL23R (11748794_a_at) / RFU TNFAIP8L3 (11732012_x_at) / Fold change /veh TNFAIP8L3 (11732012_x_at) / RFU MBOAT4 (11741988_at) / Fold change /veh MBOAT4 (11741988_at) / RFU 11764193_at / Fold change /veh 11764193_at / RFU TMEM53 (11763286_at) / Fold change /veh TMEM53 (11763286_at) / RFU MAGEB2 (11727129_at) / Fold change /veh MAGEB2 (11727129_at) / RFU TMEM200A (11744735_a_at) / Fold change /veh TMEM200A (11744735_a_at) / RFU CCDC152 (11751479_a_at) / Fold change /veh CCDC152 (11751479_a_at) / RFU FAM211A (11726209_a_at) / Fold change /veh FAM211A (11726209_a_at) / RFU RGS16 (11746705_a_at) / Fold change /veh RGS16 (11746705_a_at) / RFU VCAN (11755009_s_at) / Fold change /veh VCAN (11755009_s_at) / RFU RHOB (11743442_s_at) / Fold change /veh RHOB (11743442_s_at) / RFU RGS16 (11720943_a_at) / Fold change /veh RGS16 (11720943_a_at) / RFU RGS16 (11720944_at) / Fold change /veh RGS16 (11720944_at) / RFU, VPS4B / Fold change vs veh, VPS4B / RFU, CREB1 / Fold change vs veh, CREB1 / RFU, DNAJC13 / Fold change vs veh, DNAJC13 / RFU, GNAQ / Fold change vs veh, GNAQ / RFU, CDK5R1 / Fold change vs veh, CDK5R1 / RFU, ZRANB3 / Fold change vs veh, ZRANB3 / RFU, CUL4A / Fold change vs veh, CUL4A / RFU, CCNY / Fold change vs veh, CCNY / RFU, UFL1 / Fold change vs veh, UFL1 / RFU, COG3 / Fold change vs veh, COG3 / RFU, DIAPH2 / Fold change vs veh, DIAPH2 / RFU, SKA2 / Fold change vs veh, SKA2 / RFU, AFF3 / Fold change vs veh, AFF3 / RFU, LMF1 / Fold change vs veh, LMF1 / RFU, IPO11 / Fold change vs veh, IPO11 / RFU, DFFB / Fold change vs veh, DFFB / RFU, FOXP1 / Fold change vs veh, FOXP1 / RFU, CARD8 / Fold change vs veh, CARD8 / RFU, STRN3 / Fold change vs veh, STRN3 / RFU, ADK / Fold change vs veh, ADK / RFU, RASSF2 / Fold change vs veh, RASSF2 / RFU, WIPF1 / Fold change vs veh, WIPF1 / RFU, LARP1B / Fold change vs veh, LARP1B / RFU, RASA1 / Fold change vs veh, RASA1 / RFU, RB1 / Fold change vs veh, RB1 / RFU, PPFIA1 / Fold change vs veh, PPFIA1 / RFU, MAT2A / Fold change vs veh, MAT2A / RFU, CCT5 / Fold change vs veh, CCT5 / RFU, WDR92 / Fold change vs veh, WDR92 / RFU, CUX1 / Fold change vs veh, CUX1 / RFU, TTC7A / Fold change vs veh, TTC7A / RFU, TMEM135 / Fold change vs veh, TMEM135 / RFU, DEPTOR / Fold change vs veh, DEPTOR / RFU, CPM / Fold change vs veh, CPM / RFU, DNAJB6 / Fold change vs veh, DNAJB6 / RFU, CACNA2D3 / Fold change vs veh, CACNA2D3 / RFU, DTX4 / Fold change vs veh, DTX4 / RFU, TFCP2 / Fold change vs veh, TFCP2 / RFU, GMCL1 /// GMCL1P1 / Fold change vs veh, GMCL1 /// GMCL1P1 / RFU, AEBP2 / Fold change vs veh, AEBP2 / RFU, SNHG1 /// SNORD22 /// SNORD25 /// SNORD26 /// SNORD27 /// SNORD28 /// SNORD29 /// SNORD31 / Fold change vs veh, SNHG1 /// SNORD22 /// SNORD25 /// SNORD26 /// SNORD27 /// SNORD28 /// SNORD29 /// SNORD31 / Fold change (Aza/veh), C12orf56 (ProbeSet 11735607_a_at) / Fold change (ACY-1035/veh), C12orf56 (ProbeSet 11735607_a_at) / Fold change (Aza/veh), FGFR1OP (ProbeSet 11751329_s_at) / Fold change (ACY-1035/veh), FGFR1OP (ProbeSet 11751329_s_at) / Fold change (Aza/veh), VPS36 (ProbeSet 11739960_a_at) / Fold change (ACY-1035/veh), VPS36 (ProbeSet 11739960_a_at) / RFU SYPL1 (11715823_x_at) / Fold change /veh SYPL1 (11715823_x_at) / RFU IGFBP7 (11715501_s_at) / Fold change /veh IGFBP7 (11715501_s_at) / RFU REEP3 (11722064_at) / Fold change /veh REEP3 (11722064_at) / RFU IGLL1 (11728026_x_at) / Fold change /veh IGLL1 (11728026_x_at): dose or concentration left out as unconfirmed. Particulars: ProbeSet 11723930_at; LIST D.

Take `Nc1ccc(-c2cccs2)cc1NC(=O)c1ccc2c(c1)cc(C1CC1)n2CCN1CCOCC1` [ACY-1035]: the “RFU, CCT5” value was 132.28 RFU.
